These results are taken from PMC3285450 (Journal of Medicinal Chemistry, 2010).

What is called AUC(0-t) is exposure summed from dosing to a finite time, without extrapolation to infinity. A high value points to more exposure. A word on the Cmax: it is the maximum level reached in the sampled fluid or tissue. In general, Tmax refers to the time from dosing to the highest level. By half-life is commonly meant the time in which the quantity being followed falls by half.

Series [1] is described as follows: pharmacokinetic screening by oral cassette dosing in mice. As to conditions: blood pharmacokinetic profile, Figure S3.
The nature of the next series: in vivo. As to conditions: male, CFW, mouse, po, 5 mg/kg.
The next series has as its target T1, Human sEH (Homo sapiens, UniProt P34913).
T1 sequence (P34913 1-555): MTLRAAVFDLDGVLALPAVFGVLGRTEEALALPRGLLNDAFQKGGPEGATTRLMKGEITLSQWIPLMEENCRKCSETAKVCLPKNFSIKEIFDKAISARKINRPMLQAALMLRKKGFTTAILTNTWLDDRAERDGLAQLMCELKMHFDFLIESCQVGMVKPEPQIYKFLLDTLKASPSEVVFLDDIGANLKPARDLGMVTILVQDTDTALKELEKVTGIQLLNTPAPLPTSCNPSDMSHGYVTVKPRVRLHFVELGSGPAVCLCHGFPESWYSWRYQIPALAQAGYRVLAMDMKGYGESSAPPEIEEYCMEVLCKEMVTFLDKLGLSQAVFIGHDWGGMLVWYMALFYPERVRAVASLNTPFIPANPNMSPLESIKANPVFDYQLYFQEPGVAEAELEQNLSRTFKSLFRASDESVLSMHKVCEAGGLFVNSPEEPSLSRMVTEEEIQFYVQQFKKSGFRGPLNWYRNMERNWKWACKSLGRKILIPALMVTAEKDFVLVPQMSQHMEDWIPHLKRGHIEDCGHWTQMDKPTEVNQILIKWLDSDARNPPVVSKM
As to conditions: for improved potency over compound 40: versus compound 40, reached the LOQ of the in vitro assay.

In another series the target is T2, murine sEH (Mus musculus, UniProt P34914).
T2 sequence (P34914 1-554): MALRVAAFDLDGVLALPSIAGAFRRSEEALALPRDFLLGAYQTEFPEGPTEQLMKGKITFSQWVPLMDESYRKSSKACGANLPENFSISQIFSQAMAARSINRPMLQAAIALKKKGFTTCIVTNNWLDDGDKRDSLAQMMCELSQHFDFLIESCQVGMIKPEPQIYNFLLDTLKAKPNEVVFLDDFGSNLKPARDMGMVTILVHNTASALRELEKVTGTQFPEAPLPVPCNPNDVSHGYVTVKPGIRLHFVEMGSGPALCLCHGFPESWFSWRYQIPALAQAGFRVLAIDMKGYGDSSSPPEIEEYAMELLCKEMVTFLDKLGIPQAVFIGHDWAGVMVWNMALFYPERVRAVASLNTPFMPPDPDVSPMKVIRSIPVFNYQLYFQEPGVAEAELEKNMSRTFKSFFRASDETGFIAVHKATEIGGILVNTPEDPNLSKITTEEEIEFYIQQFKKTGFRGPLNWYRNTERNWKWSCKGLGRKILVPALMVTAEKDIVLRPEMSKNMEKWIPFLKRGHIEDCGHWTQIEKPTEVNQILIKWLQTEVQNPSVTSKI
The series is described as follows: fluorescent.

Series [2] relates to carrageenan induced inflammatory pain. The format is in vivo, Male Sprague-Dawley rats. As to conditions: for reversal of carrageenan induced pain (mechanical withdrawal threshold): rats, intraplantar, 3 hr after carrageenan, sEHi 10 ng/paw, morphine 10,000 ng/paw, n=6. (In general: The carrageenan paw model is a standard test of acute inflammation.)
The next series can be described thus: hydrolytic stability. It is filed as physicochemical.

On to `CC(=O)N1CCC(NC(=O)NC23CC4CC(CC(C4)C2)C3)CC1` [APAU], for which, in series [1], the AUC result is “small” and the halflife entry is listed as “very short”.
For `O=C(O)CCCCCCCCCCCNC(=O)NC12CC3CC(CC(C3)C1)C2` [AUDA, 12-(3-adamantane-1-yl-ureido)dodecanoic acid, reference compound], the AUC(0-t) in “in vivo” was 0.05 µM·h.
`CCC(=O)N1CCC(NC(=O)Nc2ccccc2)CC1` [Compound 7]: the “drop in potency against the human enzyme versus cyclohexyl compound 4” value on Human sEH (versus compound 4) came out at 11 fold.
Turning to `CCC(=O)N1CCC(NC(=O)Nc2cccc(F)c2)CC1` [Compound 28], the “lower IC50 than para-fluorophenyl 24, human enzyme” value at Human sEH (versus compound 24) came out at 2 fold. For the same compound, the “lower IC50 than para-fluorophenyl 24, murine enzyme” value at murine sEH (versus compound 24) was determined as 5 fold.
Consider `O=C(Nc1ccc(OC(F)(F)F)cc1)NC1CCN(C(=O)C2CC2)CC1` [Compound 52, 1-(1-(cyclopropanecarbonyl)piperidin-4-yl)-3-(4-(trifluoromethoxy)phenyl)urea], for which the “increase in potency compared to morphine, reducing hyperalgesia” value in series [2] (mechanical withdrawal threshold, carrageenan model) is listed as 1000 fold. In addition, the “reversal of carrageenan induced pain (mechanical withdrawal threshold)” value in series [2] was “significantly reversed carrageenan induced pain”. For the same compound, on Human sEH (versus compound 2), the “increase in potency over adamantane analogue 2” value worked out at 7 fold. For the same compound, the “improved potency over compound 40” value on Human sEH was “approximately 9 fold”. Further, in the series “in vivo”, the AUC(0-t) is 164 µM·h, the Cmax came to 8.9 µM, the Tmax was 3.17 h and the half-life was 19.7 h. For the same compound, the “improvement from AUDA, exposure in murine blood and murine potency data” value on murine sEH (Figure S5, versus AUDA) is recorded as 10^5.
As to `O=C(Nc1ccc(OC(F)(F)F)cc1)NC1CCN(C(=O)C(F)(F)F)CC1` [Compound 53], the hydrolytic stability entry in the series “hydrolytic stability” is “hydrolytic instability”. In addition, the “improved potency over compound 40” value on Human sEH is recorded as “approximately 9 fold”.
As for `CN1CC[C@]23c4c5ccc(O)c4O[C@H]2[C@@H](O)C=C[C@H]3[C@H]1C5` [morphine, reference compound], the “reversal of carrageenan induced pain (mechanical withdrawal threshold)” value in series [2] was “significantly reversed carrageenan induced pain”.
